Assay type in all cases: in vivo
The test system of series [1] is two spotted mite (Tetranychus urticae Koch). Nature of the series: Use Example C: activity in the prophylactic treatment of feed against the two spotted mite. To be noted: foliar, 0.1 % aqueous preparation, field bean leaf discs, adults and eggs counted after 3 days at 25 C, larvae after a further 7 days, Abbott's method. The protocol:
Activity in the prophylactic treatment of feed against the two spotted mite (Tetranychus urticae Koch)
From the primary leaf of field beans (Phaseolus vulgaris nanus Aschers.) 14 mm diameter discs were cut. Some of these were treated with a 0.1 % aqueous preparations of compounds of the invention and these along side untreated discs were placed on filter papers with the underside of the leaves turned upwards. After drying the test pieces, they were each infested with six adult female Tetranychus urticae and maintained for 3 days at 25 C and 16 hours light per day. The experiment was replicated 4 times. Dead and alive adults were then counted and removed. Similarly the number of eggs laid were counted. After a further 7 days, the number of living larvae were counted, the activity calculated using Abbott's method in comparison with the untreated controls.

Series [2] deals with corn rootworm (Diabrotica undecimpunctata). Kind of series: Use Example D: activity against eggs/larvae of the corn rootworm. To be noted: 168 h; for mortality at 0.1 %: Diabrotica undecimpunctata, aqueous emulsion 0.1%, 0.2 ml pipetted into soil, 7 days at 25 C, death of eggs or newly hatched larvae; for activity: corn rootworm, in vivo. Here is the method: Activity against eggs/larvae of the corn rootworm (Diabrotica undecimpunctata)
The compounds of the invention were made up as aqueous emulsions at a concentration of 0.1%. Into the soil in polystyrene petri dishes, containing maize seedlings (1 seedling/dish) and ca. 50 eggs of the corn rootworm (Diabrotica undecimpunctata) were pipetted 0.2 ml of these preparations. The closed dishes were left at 25 C under extended daylight conditions for 7 days. The criterion for judging the activity was the death of eggs or newly hatched larvae at the end of the test.

A further series relates to Aphis fabae. Nature of the series: Activity in prophylactic treatment of leaf discs against Aphis fabae. The settings on record: 48 h; for mortality at 0.1 %: Aphis fabae, foliar, 0.1% aqueous preparation, field bean leaf discs infested with wingless stages, 2 days at 25 C, percentage mortality, Abbott's method. The protocol: From the primary leaf of field beans (Phaseolus vulgaris nanus Aschers.), 24 mm diameter discs were cut. Some of these were treated with a 0.1% aqueous preparations of compounds of the invention and these along side untreated discs were placed on filter papers with the underside of the leaves turned upwards. After drying the test pieces, they were each infested with wingless stages of Aphis fabae (approx 100 per leaf piece). The experiment was replicated 3 times. The leaves were kept on wet filter papers for 2 days at 25 C and 16 hours light per day. The percentage mortality was then estimated and the activity calculated using Abbott's method in comparison with the untreated controls.

For series [3], the system named is brown rice-hoppers (Niliparvata lugens Stal). Nature of the series: Use Example B: activity in prophylactic treatment of leaves against brown rice-hoppers. To be noted: 48 h; for mortality at 0.1 %: read-out: activity. From the text:
Activity in prophylactic treatment of leaves against brown rice-hoppers (Niliparvata lugens Stal)
Rice seedlings (Oryzae sativa L.) in the two leaf stage (about 10 per polystyrene pot of size 6.5 x 6.5 cm) were either untreated or […] until dripping wet, with an aqueous preparation containing 0.1 % of active material. After drying the sprayed leaves, a transparent cylinder was placed over each pot and through an opening, about 30 brown rice-hoppers (Niliparvata lugens) in the 4-5 stage, anaesthetised with carbon dioxide, were introduced into each pot. After closing the opening with a fine mesh screen, the pots were kept for 2 days at 28° C and 16 hours/day of light in the glasshouse, the amount of dead hoppers was determined. The percentage mortality was then estimated and the activity calculated using Abbott's method in comparison with the untreated controls.

For series [4], the system named is cotton bollworm (Heliothis viriscens). Nature of the series: whole plant or invertebrate. The settings on record: 48 h, read-out: activity. Here is the method:
Activity against larvae (L1) of the cotton bollworm (Heliothis viriscens)
Compounds of the invention were made up as aqueous preparations at a concentration of 0.1 %. Into these, feed material was dipped for 2 seconds. After drying the feed material was put into into polystyrene petri dishes. After an hour, 10 L1 of the cotton bollworm (Heliothis viriscens) were counted into the dishes. The closed dishes were left for up to 7 days at 25 °C under extended daylight conditions. The % mortality of the larvae after two days indicated the level of activity.

The subject of series [5] is cotton army worm (Spodoptera littoralis). Nature of the series: Use Example F: ovicidal activity against eggs of the cotton army worm. To be noted: aqueous preparation 0.1 %; one day old eggs dipped; four days; % inhibition of hatching of the eggs. From the text:
Ovicidal activity against eggs of the cotton army worm (Spodoptera littoralis).
The compounds of the invention were made up as aqueous preparations at a concentration of 0.1 %. One day old eggs that had been laid on filter paper by fertilised female moths were dipped in the preparations until they were completely wet and then placed in closed petri dishes in the laboratory under extended daylight conditions for four days. The % inhibition of hatching of the eggs in comparison with untreated eggs indicates the level of activity.

As to `C=C(Br)C(C)(C)COCc1cccc(Oc2ccccc2)c1` [Example 7, 2-bromo-3,3-dimethyl-4-(3-phenoxy-benzyloxy)-1-butene], the mortality at 0.1 % is 80 to 100% in series [1], 80 to 100% in series [2] and at least 80% in the series with Aphis fabae.
In the case of `C=C(Br)C(C)(C)COCc1ccc(F)c(Oc2ccccc2)c1` [Example 59, 2-bromo-3,3-dimethyl-4-(4-fluoro-3-phenoxybenzyloxy)-1-butene], the mortality at 0.1 % in series [3] is at least 80%; in series [4], 80 to 100%; in series [1], 80 to 100%; in series [2] it was 80 to 100%; in the series on Aphis fabae, at least 80%.
With `C=C(C)C(C)(C)CCCc1cccc(Oc2ccccc2)n1` [Example 18, 6-(6-phenoxypyridin-2-yl)-2,3,3-trimethyl-1-hexene], the mortality at 0.1 % in series [3] is at least 80%; in series [1], 80 to 100%; in series [2], 80 to 100%; in the series on Aphis fabae, at least 80%.
For the compound `CC(C)(COCc1cccc(Oc2ccccc2)c1)C1=CCCCC1` [Example 8, 2-(cyclohexen-1-yl)-2-methyl-1-(3-phenoxybenzyloxy)propane], the mortality at 0.1 % in series [4] and in series [2] was 80 to 100% each time.
Consider `C=C(C)C1(COCc2ccc(F)c(Oc3ccccc3)c2)CC1` [Example 51, 2-(4-fluoro-3-phenoxybenzyloxy-methyl)-2-isopropenylcyclopropane], for which the mortality at 0.1 % is at least 80% in series [3], 80 to 100% in series [2] and at least 80% with Aphis fabae.
For the compound `C=C(C)C(C)(C)COCc1cccc(Oc2cccc(C(F)(F)F)c2)c1` [Example 24, 4-[3-(3-trifluoromethylphenoxy)-benzyloxy]-2,3,3-trimethyl-1-butene], the mortality at 0.1 % in series [3] is at least 80%.
As to `C=C(I)C(C)(C)CCCc1cccc(Oc2ccccc2)c1` [Example 63, 3,3-dimethyl-2-iodo-6-(3-phenoxy-phenyl)-1-hexene], the mortality at 0.1 % in series [3] was at least 80%; in series [4], 80 to 100%.
In turn, `C=C(c1ccccc1)C(C)(C)COCc1c(F)c(F)c(F)c(F)c1F` [Example 61, 3,3-dimethyl-4-(2,3,4,5,6-pentafluoro-benzyloxy)-2-phenyl-1-butene] registered a mortality at 0.1 % in series [1] of 80 to 100%.
On to `C=C(c1ccccc1)C(C)(C)COCc1ccc(F)c(Oc2ccccc2)c1` [Example 14, 3,3-dimethyl-4-(4-fluoro-3-phenoxy-benzyloxy)-2-phenyl-1-butene], for which the mortality at 0.1 % in series [3] was at least 80%.
As for `C=C(C(C)C)C(C)(C)COCc1cccc(Oc2ccccc2)c1` [Example 25, 3-methylene-5-(3-phenoxy-benzyloxy)-2,4,4-trimethylpentane], in series [3], the mortality at 0.1 % was at least 80%.
With `C=C(C)C(C)(C)CCCc1ccc(F)c(Oc2ccccc2)c1` [Example 4, 6-(4-fluoro-3-phenoxyphenyl)-2,3,3-trimethyl-1-hexene], the mortality at 0.1 % in series [3] was at least 80%; in series [4], 80 to 100%; in series [1], 80 to 100%; in series [2], 80 to 100%; with Aphis fabae it was at least 80%. Further, the activity in series [5] is on record as 80 - 100%.
For the compound `C=C(C(C)C)C(C)(C)COCc1ccc(F)c(Oc2ccccc2)c1` [Example 26], the activity in series [2] was 80-100%; in the series with Aphis fabae (aphis fabae, in vivo), at least 80%.
Take `CC(C)(COCc1ccc(F)c(Oc2ccccc2)c1)C1=CCCC1` [Example 10, 2-(cyclopenten-1-yl)-1-(4-fluoro-3-phenoxybenzyloxy)-2-methylpropane]: the mortality at 0.1 % in series [4] is 80 to 100%; in series [1] it was 80 to 100%; in the series on Aphis fabae it was at least 80%.
In the case of `CC(C)(COCc1ccc(F)c(Oc2ccccc2)c1)C1=CCCCC1` [Example 2, 2-(Cyclohexen-1-yl)-2-methyl-1-(4-fluoro-3-phenoxybenzyloxy)propane], the mortality at 0.1 % in series [3] is at least 80%; in series [2], 80 to 100%; in the series with Aphis fabae it was at least 80%.
In series [1], `C=C(c1ccccc1)C(C)(C)COCc1cccc(-c2ccccc2)c1C` [Example 15, 3,3-dimethyl-4-(2-methyl-3-phenyl-benzyloxy)-2-phenyl-1-butene] came in with a mortality at 0.1 % of 80 to 100%.
With `CC(C)(COCc1ccc(F)c(Oc2ccccc2)c1)C1=CCOCC1` [Example 44, 1-(4-fluoro-3-phenoxybenzyloxy)-2-methyl-2-(4-oxacyclohexen-1-yl)propane], in series [3], the mortality at 0.1 % is at least 80%.
For the compound `CC(C)(COCc1c(F)c(F)c(F)c(F)c1F)C1=CCCC1` [Example 62, 2-(cyclopenten-1-yl)-2-methyl-1-(2,3,4,5,6-pentafluorobenzyloxy)propane], the mortality at 0.1 % in series [4] fell in the range of 80 to 100%.
Regarding `C=C(C)C(C)(C)CCCc1cccc(Oc2ccccc2)c1` [Example 1, 6-(3-Phenoxyphenyl)-2,3,3,-trimethyl-1-hexene], the activity in series [3] (brown rice-hopper, in vivo) is on record as at least 80%; in series [2] it was 80-100%.
As for `C=C(I)C(C)(C)COCc1ccc(F)c(Oc2ccccc2)c1` [Example 60, 3,3-dimethyl-2-iodo-4-(4-fluoro-3-phenoxybenzyloxy)-1-butene], the values for the mortality at 0.1 % (in series [3]; in series [1]; in the series with Aphis fabae) were at least 80%, 80 to 100% and at least 80%, respectively.
For the compound `C=C(C)C(C)(C)COCc1cccc(Oc2ccc(Cl)cc2)c1` [Example 21, 4-[3-(4-chlorophenoxy)benzyloxy]-2,3,3-trimethyl-1-butene], the mortality at 0.1 % in series [3] is at least 80%; in series [1], 80 to 100%; in series [2], 80 to 100%; with Aphis fabae, at least 80%.
For `C=C(C)C(C)(C)COCc1cccc(Oc2ccccc2)n1` [Example 17, 4-(6-phenoxypyridin-2-ylmethoxy)-2,3,3-trimethyl-1-butene], the mortality at 0.1 % in series [3] was at least 80%; in series [2], 80 to 100%.
